The values that follow come from patent US20170210741A1, “Benzimidazole Compounds, Use As Inhibitors of WNT Signaling Pathway in Cancers, and Methods for Preparation Thereof” (Southern Research Institute, priority 2016, published 2017).

The IC50 is the point on the concentration scale where inhibition reaches its midpoint.

Read-outs that look alike come from different tables or passages of the source.

What all share (format): cell-based
Test [1] deals with Suit-2. The test is described as follows: In vitro cell viability assay (Cell Titer Glo), pancreatic cancer Suit-2. To be noted: 72 h. As to the method: (§1) Breast cancer SUM159 was obtained from Asterand and grown according to supplier's recommendation. All other cell lines were obtained from ATCC and cultured in standard cell culture conditions with complete cell culture medium containing 10% FBS.
(§2) Cancer cells were seeded into optically clear tissue culture-treated black 96-well plates (for adherent cells) or low-attachment 96-well plates (for cancer stem cells) at 2,000-5000 cells/50 μL of media per well. The cells were treated with Wnt inhibitors at 0.1 to 10 μM for 72 h. Cell viability was measured by the Cell Titer Glo Assay from Promega.

In test [2] the test system is S2VP10. In words: In vitro cell viability assay (Cell Titer Glo), pancreatic cancer S2VP10. The settings on record: 72 h. The protocol:
as §1, §2

Test [3] has as its system Wnt signaling. In words: Wnt signaling reporter assay (Super8XTOPFlash luciferase) in LRP6-expressing HEK293 cells. The settings on record: 24 h treatment, luciferase normalized to β-galactosidase. The protocol:
HEK293 cells were plated into 24-well plates. After overnight culture, the cells were transiently transfected with 0.06 μg of the Super8XTOPFlash luciferase construct, 0.06 μg of β-galactosidase-expressing vector, and 0.06 μg of pCS-Myc-hLRP6 or control vector. After 24 h incubation, cells were treated with each individual compound in triplicate for 24 h. Cells were then lysed, and the luciferase and β-galactosidase activities were determined by the luciferase assay system (Promega) and β-galactosidase assay system (Promega), respectively. The luciferase activity was normalized to the β-galactosidase activity.
Table 2 below illustrates the effects of the disclosed compounds on Wnt signaling in LRP6-expressing HEK293 cells.

Where [4] appears, read: Suit-2, CSC enriching serum free medium, non-adherent plates, read-out: Cell viability (IC50) Suit-2 CSC.
[5] abbreviates: Suit-2, adherent, complete medium 10% FBS, read-out: Cell viability (IC50) Suit-2 Adherent.
The mark [6] stands for this setting: S2VP10, CSC enriching serum free medium, non-adherent plates, read-out: Cell viability (IC50) S2VP10 CSC.
Setting [7] is: S2VP10, adherent, complete medium 10% FBS, read-out: Cell viability (IC50) S2VP10 Adherent.

As to `Clc1cc2nc(-c3ccc(N4CCNCC4)cc3)[nH]c2cc1Cl` [Compound 13, 5,6-dichloro-2-(4-(piperazin-1-yl)phenyl)-1H-benzo[d]imidazole], the IC50 in test [1] (setting [4]), in test [1] (setting [5]), in test [2] (setting [6]) and in test [2] (setting [7]) was over 10000 nM each time.
On to `CCN1CCN(c2ccc(-c3nc4cc(Cl)c(Cl)cc4[nH]3)cc2)CC1` [Compound 14, 5,6-dichloro-2-(4-(4-ethylpiperazin-1-yl)phenyl)-1H-benzo[d]imidazole], for which the IC50 was 1230 nM in test [1] (setting [4]), over 10000 nM in test [1] (setting [5]), 1330 nM in test [2] (setting [6]) and over 10000 nM in test [2] (setting [7]).
In the case of `Clc1cc2nc(-c3ccc(-n4ccnc4)cc3)[nH]c2cc1Cl` [Compound 15, 2-(4-(1H-imidazol-1-yl)phenyl)-5,6-dichloro-1H-benzo[d]imidazole], the IC50 in test [1] (setting [4]) is 1810 nM; in test [1] (setting [5]), over 10000 nM; in test [2] (setting [6]), 1340 nM; in test [2] (setting [7]), over 10000 nM.
As to `Cc1nccn1-c1ccc(-c2nc3cc(Cl)c(Cl)cc3[nH]2)cc1` [Compound 16, 5,6-dichloro-2-(4-(2-methyl-1H-imidazol-1-yl)phenyl)-1H-benzo[d]imidazole], the IC50 in test [1] (setting [4]), in test [1] (setting [5]), in test [2] (setting [6]) and in test [2] (setting [7]) was over 10000 nM in each case.
Consider `CN1CCN(c2ccc(-c3nc4ccc(C(F)(F)F)cc4[nH]3)cc2)CC1` [Compound 18, 2-(4-(4-methylpiperazin-1-yl)phenyl)-6-(trifluoromethyl)-1H-benzo[d]imidazole], for which, in test [3], the “IC50 (effects on Wnt signaling)” value is given as “Inactive”. Moreover, the IC50 in test [1] (setting [4]) was 760 nM; in test [1] (setting [5]), over 10000 nM; in test [2] (setting [6]) it was 1520 nM; in test [2] (setting [7]), 7160 nM.
`CN1CCN(c2ccc(-c3nc4ccc(F)cc4[nH]3)cc2)CC1` [Compound 19, 6-fluoro-2-(4-(4-methylpiperazin-1-yl)phenyl)-1H-benzo[d]imidazole]: the “IC50 (effects on Wnt signaling)” value in test [3] is recorded as “Inactive”. For the same molecule, the IC50 came out at 330 nM in test [1] (setting [4]), 1340 nM in test [1] (setting [5]), 350 nM in test [2] (setting [6]) and 790 nM in test [2] (setting [7]).
On the same counts, the results for `CN1CCN(c2ccc(-c3nc4ccncc4[nH]3)cc2)CC1` [Compound 20, 2-(4-(4-methylpiperazin-1-yl)phenyl)-3H-imidazo[4,5-c]pyridine] are “Inactive”, 210 nM, 290 nM, 180 nM and 140 nM.
With `Cn1c(-c2ccc(OC(F)(F)F)cc2)nc2cc(Cl)c(Cl)cc21` [Compound 23, 5,6-dichloro-1-methyl-2-(4-(trifluoromethoxy)phenyl)-1H-benzo[d]imidazole], in test [3], the “IC50 (effects on Wnt signaling)” value is reported as “Inactive”.
Still for that read-out and setting: in the case of `Fc1cc2nc(-c3ccc(OC(F)(F)F)cc3)[nH]c2cc1Cl` [Compound 24, 6-chloro-5-fluoro-2-(4-(trifluoromethoxy)phenyl)-1H-benzo[d]imidazole] it was “Inactive”.
With `Fc1cc2[nH]c(-c3ccc(OC(F)(F)F)cc3)nc2cc1C(F)(F)F` [Compound 25, 6-fluoro-2-(4-(trifluoromethoxy)phenyl)-5-(trifluoromethyl)-1H-benzo[d]imidazole], the “IC50 (effects on Wnt signaling)” value in test [3] is “Inactive”. The IC50 in test [1] (setting [4]) was found to be 2050 nM; in test [1] (setting [5]), 5630 nM; in test [2] (setting [6]), 2770 nM; in test [2] (setting [7]), 7200 nM.
Turning to `FC(F)(F)Oc1ccc(-c2nc3cc(C(F)(F)F)c(Cl)cc3[nH]2)cc1` [Compound 26, 6-chloro-2-(4-(trifluoromethoxy)phenyl)-5-(trifluoromethyl)-1H-benzo[d]imidazole], the “IC50 (effects on Wnt signaling)” value in test [3] is “Inactive”. The IC50 worked out at 860 nM in test [1] (setting [4]), 6440 nM in test [1] (setting [5]), 950 nM in test [2] (setting [6]) and 6920 nM in test [2] (setting [7]).
On the same counts, the results for `FC(F)(F)c1ccc2[nH]c(-c3ccc(N4CCCCC4)cc3)nc2c1` [Compound 29, 2-(4-(piperidin-1-yl)phenyl)-5-(trifluoromethyl)-1H-benzo[d]imidazole] are “Inactive”, 1420 nM, 7560 nM, 1080 nM and over 10000 nM.
As for `c1cc2nc(-c3ccc(N4CCCCC4)cc3)[nH]c2cn1` [Compound 30, 2-(4-(piperidin-1-yl)phenyl)-3H-imidazo[4,5-c]pyridine], the “IC50 (effects on Wnt signaling)” value in test [3] is on record as “Inactive”. Further, the IC50 in test [1] (setting [4]) worked out at 70 nM; in test [1] (setting [5]), 80 nM; in test [2] (setting [7]) it was 60 nM.
Regarding `FC(F)(F)c1cc2nc(-c3ccc(N4CCCC4)cc3)[nH]c2cc1Cl` [Compound 32, 6-chloro-2-(4-(pyrrolidin-1-yl)phenyl)-5-(trifluoromethyl)-1H-benzo[d]imidazole], the “IC50 (effects on Wnt signaling)” value in test [3] is given as “Inactive”. The IC50 in test [1] (setting [4]) is 1100 nM; in test [1] (setting [5]), 3870 nM; in test [2] (setting [6]), 600 nM; in test [2] (setting [7]), 5200 nM.
For `Clc1cc2nc(-c3ccc(N4CCCCC4)cc3)[nH]c2nc1Cl` [Compound 33, 5,6-dichloro-2-(4-(piperidin-1-yl)phenyl)-3H-imidazo[4,5-b]pyridine], the “IC50 (effects on Wnt signaling)” value in test [3] is “Inactive”. Besides, the IC50 in test [1] (setting [4]), in test [1] (setting [5]), in test [2] (setting [6]) and in test [2] (setting [7]) was over 10000 nM in each case.
As to `Clc1cc2nc(-c3ccc(N4CCCC4)cc3)[nH]c2nc1Cl` [Compound 34, 5,6-dichloro-2-(4-(pyrrolidin-1-yl)phenyl)-3H-imidazo[4,5-b]pyridine], in test [3], the “IC50 (effects on Wnt signaling)” value is given as “Inactive”. Besides, the IC50 in test [1] (setting [4]), in test [1] (setting [5]), in test [2] (setting [6]) and in test [2] (setting [7]) was over 10000 nM throughout.
On to `FC(F)(F)c1cc(Cl)c2[nH]c(-c3ccc(N4CCCC4)cc3)nc2c1` [Compound 35, 7-chloro-2-(4-(pyrrolidin-1-yl)phenyl)-5-(trifluoromethyl)-1H-benzo[d]imidazole], for which the “IC50 (effects on Wnt signaling)” value in test [3] was “Inactive”. For the same molecule, the IC50 in test [1] (setting [4]) was 240 nM; in test [1] (setting [5]), 9060 nM; in test [2] (setting [6]) it was 150 nM; in test [2] (setting [7]), over 10000 nM.
In the same order, the values of `FC(F)(F)c1cc(Cl)c2[nH]c(-c3ccc(N4CCCCC4)cc3)nc2c1` [Compound 36, 7-chloro-2-(4-(piperidin-1-yl)phenyl)-5-(trifluoromethyl)-1H-benzo[d]imidazole] are “Inactive”, 2530 nM, 8660 nM, 2950 nM and over 10000 nM.
In the case of `FC(F)(F)c1cc2nc(-c3ccc(N4CCCCC4)cc3)[nH]c2cc1Cl` [Compound 37, 6-chloro-2-(4-(piperidin-1-yl)phenyl)-5-(trifluoromethyl)-1H-benzo[d]imidazole], the “IC50 (effects on Wnt signaling)” value in test [3] is listed as “Inactive”. The IC50 in test [1] (setting [4]) is 550 nM; in test [1] (setting [5]) it was 5330 nM; in test [2] (setting [7]), 9250 nM.
